Test [1] concerns the target T1, Melanocortin receptor 4 (Homo sapiens, UniProt P32245). The test is described as follows: Displacement of [125I]-NDP-alpha-MSH from human MC4R expressed in CHO cells by Topcount beta counter analysis. It counts as cell-based.
The next test addresses Melanocortin receptor 3 (Homo sapiens, UniProt P41968). In words: Displacement of [125I]-NDP-alpha-MSH from human MC3R expressed in HEK293 cells by Topcount beta counter analysis. It counts as cell-based.
Test [2] concerns the target Melanocyte-stimulating hormone receptor (Homo sapiens, UniProt Q01726). In words: Displacement of [125I]-NDP-alpha-MSH from human MC1R expressed in CHO cells by Topcount beta counter analysis. The format is cell-based.
A further test deals with Melanocortin receptor 5 (Homo sapiens, UniProt P33032). In words: Displacement of [125I]-NDP-alpha-MSH from human MC5R expressed in CHO cells by Topcount beta counter analysis. It counts as cell-based.
Test [3] addresses T1, Melanocortin receptor 4. In words: Antagonist activity at human MC4R in HEK293SL cells assessed as G15 activation incubated for 30 mins in presence of NDP-alpha-MSH by BRET assay. It counts as functional, cell-based. The conditions noted are these: filed as antagonist.
The species named for test [4] is Homo sapiens. The test is described as follows: Selectivity ratio of Ki for human MC3R expressed in HEK293 cells to Ki for human MC4R expressed in CHO cells. The format is cell-based.
Test [5] addresses T1, Melanocortin receptor 4. The test is described as follows: Antagonist activity at human MC4R in HEK293SL cells assessed as beta-arrestin2 activation incubated for 30 mins in presence of alpha-MSH by BRET assay. It counts as functional, cell-based. As to conditions: filed as antagonist.
Test [6] addresses T1, Melanocortin receptor 4. The test is described as follows: Antagonist activity at human MC4R in HEK293SL cells assessed as G15 activation incubated for 30 mins in presence of alpha-MSH by BRET assay. It counts as functional, cell-based. As to conditions: filed as antagonist.
The species named for test [7] is Homo sapiens. The test is described as follows: Selectivity ratio of Ki for human […] expressed in CHO cells to Ki for human MC4R expressed in CHO cells. It counts as cell-based.
The target of test [8] is T1, Melanocortin receptor 4. In words: Antagonist activity at human MC4R in HEK293SL cells assessed as beta-arrestin2 activation incubated for 30 mins in presence of NDP-alpha-MSH by BRET assay. The format is functional, cell-based. As to conditions: filed as antagonist.
In test [9] the target is T2, Type-1 angiotensin II receptor (Homo sapiens) (UniProt P30556).
T2 sequence (whole entry): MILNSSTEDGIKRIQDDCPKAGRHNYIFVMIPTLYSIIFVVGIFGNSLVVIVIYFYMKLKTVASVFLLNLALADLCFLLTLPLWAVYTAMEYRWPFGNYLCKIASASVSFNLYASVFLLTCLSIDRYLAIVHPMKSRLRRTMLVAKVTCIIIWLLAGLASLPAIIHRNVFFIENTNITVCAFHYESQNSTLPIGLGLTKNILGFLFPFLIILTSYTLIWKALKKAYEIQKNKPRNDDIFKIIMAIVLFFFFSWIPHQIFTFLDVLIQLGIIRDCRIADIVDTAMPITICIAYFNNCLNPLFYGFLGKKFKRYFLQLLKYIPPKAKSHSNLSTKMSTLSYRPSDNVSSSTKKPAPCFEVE
In words: Inhibition of human AT1R expressed in CHO cells at 50 uM by Topcount beta counter analysis relative to control. The format is cell-based.

Test [10] concerns the target T1, Melanocortin receptor 4. In words: Antagonist activity at human MC4R in HEK293SL cells assessed as Gs activation at 30 uM incubated for 30 mins in presence of alpha-MSH by BRET assay. The format is functional, cell-based. The conditions noted are these: filed as antagonist.
Test [11] concerns the target T1, Melanocortin receptor 4. In words: Antagonist activity at human MC4R in HEK293SL cells assessed as Gs activation incubated for 30 mins in presence of NDP-alpha-MSH by BRET assay. It counts as functional, cell-based. The conditions noted are these: filed as antagonist.
The target of test [12] is T1, Melanocortin receptor 4. The test is described as follows: Antagonist activity at human MC4R in HEK293SL cells assessed as Gs activation incubated for 30 mins in presence of alpha-MSH by BRET assay. The format is functional, cell-based. As to conditions: filed as antagonist.
Test [13] is filed under the species Homo sapiens. The test is described as follows: Selectivity ratio of Ki for human MC1R expressed in CHO cells to Ki for human MC4R expressed in CHO cells. It counts as cell-based.

Active and inactive are the calls of the source. The rule behind the calls is not given here. Where a SMILES comes first, the peptide text is derived from it. Bridges are numbered along the chain shown (N, C = ends).

Chain of Melanocyte-stimulating hormone receptor (Q01726 whole entry): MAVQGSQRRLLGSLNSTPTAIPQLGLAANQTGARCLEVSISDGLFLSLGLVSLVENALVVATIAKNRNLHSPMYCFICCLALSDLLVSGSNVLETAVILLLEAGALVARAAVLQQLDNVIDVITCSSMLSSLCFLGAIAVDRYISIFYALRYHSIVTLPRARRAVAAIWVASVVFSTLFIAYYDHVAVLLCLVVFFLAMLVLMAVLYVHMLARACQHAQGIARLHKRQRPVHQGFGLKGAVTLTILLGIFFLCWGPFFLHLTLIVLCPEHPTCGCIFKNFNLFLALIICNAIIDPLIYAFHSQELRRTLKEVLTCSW
Chain of Melanocortin receptor 5 (P33032 whole entry): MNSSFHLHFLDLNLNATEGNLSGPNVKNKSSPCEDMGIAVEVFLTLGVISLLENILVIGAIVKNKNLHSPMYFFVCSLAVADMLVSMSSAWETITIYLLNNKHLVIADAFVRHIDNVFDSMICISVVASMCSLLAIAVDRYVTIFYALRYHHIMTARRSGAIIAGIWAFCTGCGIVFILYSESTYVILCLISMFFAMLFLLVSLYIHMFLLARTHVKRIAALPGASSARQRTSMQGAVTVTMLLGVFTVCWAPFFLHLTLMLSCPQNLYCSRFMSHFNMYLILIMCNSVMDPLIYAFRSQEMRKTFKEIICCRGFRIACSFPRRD
T1 sequence (P32245 whole entry): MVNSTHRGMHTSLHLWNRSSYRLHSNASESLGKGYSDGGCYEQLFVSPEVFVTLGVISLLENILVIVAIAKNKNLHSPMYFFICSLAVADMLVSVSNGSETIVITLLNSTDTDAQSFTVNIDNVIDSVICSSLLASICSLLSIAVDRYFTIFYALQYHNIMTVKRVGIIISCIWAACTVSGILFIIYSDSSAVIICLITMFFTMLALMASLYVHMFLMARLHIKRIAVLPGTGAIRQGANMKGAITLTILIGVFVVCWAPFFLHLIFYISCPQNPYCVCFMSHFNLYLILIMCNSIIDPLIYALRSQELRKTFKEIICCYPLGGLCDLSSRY
Chain of Melanocortin receptor 3 (P41968 whole entry): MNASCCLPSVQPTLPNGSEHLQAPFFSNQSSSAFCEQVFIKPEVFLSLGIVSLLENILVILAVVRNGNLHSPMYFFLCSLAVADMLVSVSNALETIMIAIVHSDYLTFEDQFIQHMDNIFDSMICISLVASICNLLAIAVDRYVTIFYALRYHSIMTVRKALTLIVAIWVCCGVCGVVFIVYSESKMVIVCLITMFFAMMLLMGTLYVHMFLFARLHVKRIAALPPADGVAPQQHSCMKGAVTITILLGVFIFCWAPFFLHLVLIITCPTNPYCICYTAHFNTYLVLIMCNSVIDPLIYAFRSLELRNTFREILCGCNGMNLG

Consider `CC(C)C[C@H](NC(=O)[C@H](CCCCN)NC(=O)[C@H](Cc1ccccc1)NC(=O)[C@H](CCC(N)=O)NC(=O)[C@@H]1CSSC[C@H](NC(=O)[C@H](Cc2ccc(O)cc2)NC(=O)[C@H](Cc2c[nH]cn2)NC(=O)[C@H](Cc2ccccc2)NC(=O)[C@@H](N)CC(C)C)C(=O)N[C@@H](CCC(N)=O)C(=O)N[C@H]2CSSC[C@H](NC(=O)[C@H](CCC(N)=O)NC2=O)C(=O)N2CCC[C@H]2C(=O)N2CCC[C@H]2C(=O)NCC(=O)N[C@@H](Cc2ccccc2)C(=O)N[C@@H](CCCCN)C(=O)NCC(=O)N[C@@H](CCCCN)C(=O)N[C@@H](Cc2ccccc2)C(=O)N1)C(=O)N[C@@H](CCCNC(=N)N)C(=O)N1CCC[C@H]1C(=O)N1CCC[C@H]1C(=O)O` (H-LFHYCQCQCPPGFKGKFCQFKLRPP-OH; disulfide 5-18, 7-9), for which the Ki is 48 nM on Melanocortin receptor 4 [1] (read-out: Ki); 43.7 nM on Melanocortin receptor 4 [1] (read-out: pKi (converted)); 110 nM at Melanocortin receptor 3 (read-out: Ki); 97.7 nM at Melanocortin receptor 3 (read-out: pKi (converted)); 554 nM in test [2] (read-out: Ki); 490 nM in test [2] (read-out: pKi (converted)). The Ki on Melanocortin receptor 5 (read-out: Ki) was 41 nM; at Melanocortin receptor 5 (read-out: pKi (converted)) it was 28.8 nM.
For `CC(C)C[C@@H]1NC(=O)[C@H](CCC(N)=O)NC(=O)[C@@H](NC(=O)[C@H](Cc2ccc(O)cc2)NC(=O)[C@H](Cc2c[nH]cn2)NC(=O)[C@H](Cc2ccccc2)NC(=O)[C@@H](N)CC(C)C)CSSC[C@@H](C(=O)N[C@@H](CCC(N)=O)C(=O)N[C@@H](Cc2ccccc2)C(=O)N[C@@H](CCCCN)C(=O)N[C@@H](CC(C)C)C(=O)N[C@@H](CCCNC(=N)N)C(=O)N2CCC[C@H]2C(=O)N2CCC[C@H]2C(=O)O)NC(=O)[C@H](Cc2ccccc2)NC(=O)[C@H](CCCCN)NC(=O)CNC(=O)[C@H](CCCCN)NC(=O)[C@H](Cc2ccccc2)NC(=O)CNC(=O)[C@@H]2CCCN2C(=O)[C@@H]2CCCN2C(=O)[C@H](CC(C)C)NC(=O)[C@H](CCC(N)=O)NC1=O` (H-LFHYCQLQLPPGFKGKFCQFKLRPP-OH; disulfide 5-18), the Ki at Melanocortin receptor 4 [1] (read-out: pKi (converted)) is 93.3 nM; at Melanocortin receptor 3 (read-out: pKi (converted)), 275 nM; in test [2] (read-out: pKi (converted)), 398 nM; on Melanocortin receptor 5 (read-out: pKi (converted)), 117 nM.
For `CC(C)C[C@H](NC(=O)[C@H](CCCCN)NC(=O)[C@H](Cc1ccccc1)NC(=O)[C@H](CCC(N)=O)NC(=O)[C@@H]1CSSC[C@H](NC(=O)[C@H](Cc2ccc(O)cc2)NC(=O)[C@H](Cc2c[nH]cn2)NC(=O)[C@H](Cc2ccccc2)NC(=O)[C@@H](N)CC(C)C)C(=O)N[C@@H](CCC(N)=O)C(=O)N[C@@H](CO)C(=O)N[C@@H](CCC(N)=O)C(=O)N[C@@H](CO)C(=O)N2CCC[C@H]2C(=O)N2CCC[C@H]2C(=O)NCC(=O)N[C@@H](Cc2ccccc2)C(=O)N[C@@H](CCCCN)C(=O)NCC(=O)N[C@@H](CCCCN)C(=O)N[C@@H](Cc2ccccc2)C(=O)N1)C(=O)N[C@@H](CCCNC(=N)N)C(=O)N1CCC[C@H]1C(=O)N1CCC[C@H]1C(=O)O` (H-LFHYCQSQSPPGFKGKFCQFKLRPP-OH; disulfide 5-18) the same measures were 67.6 nM, 224 nM, 776 nM and 229 nM.
For `CC(C)C[C@H](NC(=O)[C@H](CCCCN)NC(=O)[C@H](Cc1ccccc1)NC(=O)[C@H](CCC(N)=O)NC(=O)[C@@H]1CSSC[C@H](NC(=O)[C@H](Cc2ccc(O)cc2)NC(=O)[C@H](Cc2c[nH]cn2)NC(=O)[C@H](Cc2ccccc2)NC(=O)[C@@H](N)CC(C)C)C(=O)N[C@@H](CCC(N)=O)C(=O)N[C@@H](C(C)C)C(=O)N[C@@H](CCC(N)=O)C(=O)N[C@@H](C(C)C)C(=O)N2CCC[C@H]2C(=O)N2CCC[C@H]2C(=O)NCC(=O)N[C@@H](Cc2ccccc2)C(=O)N[C@@H](CCCCN)C(=O)NCC(=O)N[C@@H](CCCCN)C(=O)N[C@@H](Cc2ccccc2)C(=O)N1)C(=O)N[C@@H](CCCNC(=N)N)C(=O)N1CCC[C@H]1C(=O)N1CCC[C@H]1C(=O)O` (H-LFHYCQVQVPPGFKGKFCQFKLRPP-OH; disulfide 5-18) the same measures were 60.3 nM, 282 nM, 724 nM and 224 nM.
For H-LFHYQQKQKPPGFKGKFQQFKLRPP-OH, the Ki was 15 nM on Melanocortin receptor 4 [1] (read-out: Ki); 13.5 nM on Melanocortin receptor 4 [1] (read-out: pKi (converted)); 41 nM at Melanocortin receptor 3 (read-out: Ki); 38.9 nM on Melanocortin receptor 3 (read-out: pKi (converted)); 197 nM in [2] (read-out: Ki); 182 nM in test [2] (read-out: pKi (converted)). Further, the figures for the Ki at Melanocortin receptor 5 (read-out: Ki) and on Melanocortin receptor 5 (read-out: pKi (converted)) were 195 nM and 182 nM, respectively. Besides, the Kb on Melanocortin receptor 4 [3] worked out at 3000 nM; on Melanocortin receptor 4 [5] it was 33000 nM; at Melanocortin receptor 4 [6], 6000 nM; at Melanocortin receptor 4 [8], 3800 nM; at Melanocortin receptor 4 [11] it was 32300 nM; on Melanocortin receptor 4 [12], 28000 nM. The values for the Ratio Ki in the test filed under Homo sapiens [4], in the test listed under Homo sapiens [7] and in the test listed under Homo sapiens [13] were 3, 13 and 13, respectively. Moreover, the inhibition in test [9] turned out to be 77%. Also, the outcome on Melanocortin receptor 4 [10] was Active.

Values taken from ChEMBL document CHEMBL5113520, “From a Cone Snail Toxin to a Competitive MC4R Antagonist” (J Med Chem, 2022).
